Series [1] has as its system phosphorylation of Axl, Mer, Tyro3, and downstream Akt signaling in OVCAR8 cells. Briefly: Western blot of TAM receptor and Akt phosphorylation in OVCAR8 cells. Format: cell-based, human. From the text:
(§1) Cell lysates subjected to sodium dodecyl sulfate polyacrylamide gel electrophoresis followed by transfer to nitrocellulose membrane. The membranes were then probed with primary antibodies against total Axl (AF154, R&D Systems, INC., Minneapolis, Minn.), phospho-Axl (T702; #5724, CST, Danvers, Mass.), total Akt (#4691 CST, Danvers, Mass.), phosphor-Akt (#4060, CST, Danvers, Mass.), anti-MERTK (#ab52968, Abcam, Cambridge, Mass.), phospho-MERTK (#ab14921 Abcam, Cambridge, Mass.), anti-Tyro3 (#5585, CST, Danvers, Mass.), phospho-Tyro3 (#orb186274, Biorbyt LLC, Berkely, Calif.), Bcl-2 Family Antibody Sampler Kit (#9934, CST, Danvers, Mass.), anti-Chk2 (#sc-5278, Santa Cruz Biotech, INC., Santa Cruz, Calif.), anti-XRCC1 (#2735, CST, Danvers, Mass.), anti-γH2AX (Merck Millipore #05636, Darmstadt, Germany), anti-phospho-ATM (#ab81292, Abcam, Cambridge, Mass.), anti-ATM (#ab78, Abcam, Cambridge, Mass.), anti phospho-ATR (#2853, CST, Danvers, Mass.), anti-ATR (#2790, CST, Danvers, Mass.), anti-Phospho Chk1 (#12302, CST, Danvers, Mass.), anti-Phospho Chk2 (#2197, CST, Danvers, Mass.) and anti-RPA32 (#2208, CST, Danvers, Mass.) at 4° C. overnight. The blots were then washed and probed with HRP conjugated anti-goat (#sc-2020, Santa Cruz Biotech, INC., Santa Cruz, Calif.), or HRP conjugated anti-rabbit (#A16110, Thermo Fisher Scientific, Walthan, Mass.) as appropriate. The blots were developed with Bio-Rad Western C developing reagent (#170-5060 Bio-Rad, Hercules, Calif.) and visualized with Chemidoc digital imager (#1708280, Bio-Rad, Hercules, Calif.).

Series [2] relates to 4T1 luciferase cells. The format is in vivo. The note with it: MYD1-72 Fc 1 mg/kg daily, TKIs 12.5 mg/kg twice daily; for reduction in lung metastases compared to vehicle treated mice: ex vivo bioluminescent imaging; for size of primary tumors: three weeks, vs control. From the text: In this model, cells orthotopically implanted in the mammary fat pad generate primary masses that metastasize to the lungs.
Comparison of MYD1-72 Fc with clinical Axl. TKIs There are currently no FDA approved drugs targeting Axl, though several small molecule kinase inhibitors are undergoing clinical trials. BerGenBio's BGB324 (previously Rigel's R428) is the most advanced of these compounds, and the first to be developed prospectively as an Axl inhibitor. […] Furthermore, since TKI's and biologics are fundamentally very different, as are their mechanisms of action, a direct comparison would provide valuable insights into the potential of distinct therapeutic intervention strategies. […] Cells were implanted orthotopically in the mammary fat pad, and primary tumors were allowed to establish prior to treatment. […] This dose for the TKIs was chosen as significant activity has been previously reported at equivalent concentrations.
(§2) Treatment was initiated four days post-surgery.

In series [3] the test system is Axl and FLT3 phosphorylation in AML cells. In words: Western blot of Axl and FLT3 phosphorylation in AML cells. The format is cell-based, human.
Source text: as §1

The subject of series [4] is skov3.ip. Briefly: skov3.ip intraperitoneal ovarian cancer model. The following applies: MYD1-72 Fc 1 mg/kg daily, doxorubicin 2 mg/kg twice weekly, three weeks. The format is in vivo, mouse xenograft.
Source text: At this time, several mice were sacrificed at random to ensure engraftment of diffuse metastatic disease, a hallmark of the human condition. […] After three weeks of treatment, mice were sacrificed and tumor burden was quantified both by counting the number of visible lesions, as well as excising and weighing all diseased tissue.
as §2

Series [5] relates to LM-P orthotopic pancreatic cancer. In words: LM-P orthotopic pancreatic cancer model. The following applies: immunohistochemistry.
Protocol: LMP cells derived from the KRAS/p53 metastatic mouse model were implanted subcutaneously into the flanks of mice and allowed to grow until they reached ˜500 mm^3 in size.
To establish orthotopic tumors, mice harboring subcutaneous tumors were sacrificed and tumors were isolated and cut into small fragments. Laparotomies were then performed and a tumor fragment was secured to the tail of the pancreas.
All procedures involving animals and their care and use were approved by the Institutional Animal Care and Usage Committee of Stanford University. For all in vivo studies, six week old, female nude (nu/nu) mice (Jackson Laboratory, Bar Harbor, Me.) were used. In all studies, animals displaying signs of morbidity were removed from the study immediately. […] Treatment was initiated four days post-inoculation for both studies. […] BGB324 (Selleckchem LLC, Houston, Tex.) and Foretinib (MedChem, Monmouth Junction, N.J.). Small molecules were administered twice daily via oral gavage. […] The orthotropic LM-P pancreatic adenocarcinoma model (a gift from Dr. Edgar Engleman at Stanford University, Stanford, Calif.) was established as previously described. Briefly, 1×10^6 cells were injected subcutaneously into the flanks of nude mice and grown for 2-3 weeks until they reached 500 mm^3. […]
Series [6] deals with patients. The following applies: recent phase II trial; cited from earlier work.
For series [7], the target named is T1, mouse Gas6 (mouse, UniProt Q61592 115-674, limits assumed).
T1 construct: Recombinant in KinExA (detected through a 6xHIS tag); also called mGas6
T1 sequence (looked up): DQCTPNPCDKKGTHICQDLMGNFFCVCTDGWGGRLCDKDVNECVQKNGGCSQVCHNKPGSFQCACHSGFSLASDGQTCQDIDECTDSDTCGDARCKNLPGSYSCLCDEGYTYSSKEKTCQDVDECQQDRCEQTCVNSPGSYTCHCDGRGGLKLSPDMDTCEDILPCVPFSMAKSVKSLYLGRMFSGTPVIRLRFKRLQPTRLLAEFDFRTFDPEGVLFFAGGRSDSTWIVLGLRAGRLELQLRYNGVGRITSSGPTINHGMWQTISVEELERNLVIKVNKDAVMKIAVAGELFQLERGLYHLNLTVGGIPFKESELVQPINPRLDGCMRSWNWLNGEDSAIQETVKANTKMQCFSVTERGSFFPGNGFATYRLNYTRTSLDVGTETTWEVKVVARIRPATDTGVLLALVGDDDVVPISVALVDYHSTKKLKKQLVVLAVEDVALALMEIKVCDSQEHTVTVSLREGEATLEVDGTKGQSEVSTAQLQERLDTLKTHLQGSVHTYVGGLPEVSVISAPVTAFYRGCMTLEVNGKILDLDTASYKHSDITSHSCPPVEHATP
Briefly: KinExA equilibrium titration in solution, apparent Kd of the dimeric Fc fusion.

In the case of `Nc1nc(Nc2ccc3c(c2)CC[C@@H](N2CCCC2)CC3)nn1-c1cc2c(nn1)-c1ccccc1CCC2` [BGB324, reference compound], the “pAxl and pAkt levels” value in series [1] was “short-term inhibition of pAxl but increased pAxl levels at later time points”. Moreover, in series [2], the “reduction in lung metastases compared to vehicle treated mice” value is 10% and the “size of primary tumors” value was “showed little effects”.
Take “wildtype Axl Fc: wild-type Axl decoy receptor as Fc fusion”: the “Axl and FLT3 phosphorylation” value in series [3] is “inhibited Axl and FLT3 phosphorylation”.
As for `COc1cccc2c1C(=O)c1c(O)c3c(c(O)c1C2=O)C[C@@](O)(C(=O)CO)C[C@@H]3O[C@H]1C[C@H](N)[C@H](O)[C@H](C)O1` [doxorubicin, reference compound], the “decrease in tumor burden (by weight) vs controls” value in series [4] worked out at 91%.
For `Nc1ccn([C@@H]2O[C@H](CO)[C@@H](O)C2(F)F)c(=O)n1` [Gemcitabine, reference compound], the “Ki67 proliferation in primary tumor” value in series [5] is “small, albeit significant decrease in proliferation”.
Regarding `COc1cc2c(Oc3ccc(NC(=O)C4(C(=O)Nc5ccc(F)cc5)CC4)cc3F)ccnc2cc1OCCCN1CCOCC1` [Foretinib], in series [1], the “pAxl and pAkt levels” value is reported as “indiscriminately inhibited all TAM receptors”; the “pMer and pTyro3 levels” value was “indiscriminately inhibited all TAM receptors”. In series [2], the “reduction in lung metastases compared to vehicle treated mice” value amounted to 55% and the “size of primary tumors” value is on record as “significantly reduced the size of primary tumors”. Further, in series [6], the clinical efficacy entry is given as “failed to demonstrate efficacy” and the “patients with treatment-related adverse events” value is 91%.

B1: MYD1-Fc (Fc fusion)
chain: APRGTQAEESPFVSNPGNITGARGLTGTLRCQLQVQGEPPEVHWLRDGQILELADSTQTQVPLGEDEQGDWIVASQLRITSLQLSDTGQYQCLVFLGHQTFVSQPGYVRLEGLPYFLEEPEDRTVAANTPFNLSCQAQGPPEPVDLLWLQDAVPLATAPGHGPQRSLHVPGLNKTSSFSCEAHNAKGVTTSRTATITVLPQQPRNLHLVSRQPTELEVAWTPGLSGIYPLTHCTLQAVLSNDGMGIQAGEPDPPEEPLTSQASVPPHQLRLGSLHPHTPYHIRVACTSSQGPSSWTHWLPVETPEGVPLGPPENISATRNGSQAFVHWQEPRAPLQGTLLGYRLAYQGQDTPEVLMDIGLRQEVTLELQGDGSVSNLTVCVAAYTAAGDGPWSLPVPLEAWRPGQAQPVHQLVKEPSTPAFS
notes: Dimeric Fc fusion made in HEK293; MYD1 mutations deduced as MYD1-72 minus A72V; not shown: Fc domain
Consider B1, for which the Kd in series [7] was found to be 1.1 pM.

B2: MYD1-72 Fc (Fc fusion)
chain: APRGTQAEESPFVSNPGNITGARGLTGTLRCQLQVQGEPPEVHWLRDGQILELVDSTQTQVPLGEDEQGDWIVASQLRITSLQLSDTGQYQCLVFLGHQTFVSQPGYVRLEGLPYFLEEPEDRTVAANTPFNLSCQAQGPPEPVDLLWLQDAVPLATAPGHGPQRSLHVPGLNKTSSFSCEAHNAKGVTTSRTATITVLPQQPRNLHLVSRQPTELEVAWTPGLSGIYPLTHCTLQAVLSNDGMGIQAGEPDPPEEPLTSQASVPPHQLRLGSLHPHTPYHIRVACTSSQGPSSWTHWLPVETPEGVPLGPPENISATRNGSQAFVHWQEPRAPLQGTLLGYRLAYQGQDTPEVLMDIGLRQEVTLELQGDGSVSNLTVCVAAYTAAGDGPWSLPVPLEAWRPGQAQPVHQLVKEPSTPAFS
notes: Dimeric Fc fusion made in HEK293; also called MYD-72 Fc; second generation Axl decoy receptor; not shown: Fc domain
On to B2, for which the Kd in series [7] came to 0.14 pM.

(Values after patent publication US20180140679A1, “MODULATION OF AXL RECEPTOR ACTIVITY IN COMBINATION WITH CYTOREDUCTIVE THERAPY” (THE BOARD OF TRUSTEES OF THE LELAND STANFORD JUNIOR …, priority 2016, published 2018).)
